Here are results for 1 compound from paper PMC4472559 (Journal of the American Chemical Society, 2015).

In this assay the target is transthyretin (TTR^WT) (Homo sapiens, UniProt P02766). In words: isothermal titration calorimetry. It is filed as binding.

As to `O=S(=O)(F)Oc1ccc(-c2nnc(-c3cc(Cl)c(O)c(Cl)c3)o2)cc1` [compound 4, probe 4], the Kd turned out to be 2 nM.
